From PubChem BioAssay (NCI) come the findings set out here.

Common to all, as to assay: inhibition of tumour cell growth, NCI panel, 48 h
The subject of assay [1] is 786-0 renal.
In assay [2] the test system is TK-10 renal.
Assay [3] relates to A549 NSCLC.
The test system of assay [4] is OVCAR-8 ovarian.
In assay [5] the test system is SK-MEL-2 melanoma.
The subject of assay [6] is SF-539 CNS.
In assay [7] the test system is RPMI-8226 leukemia.
Assay [8] concerns NCI-H460 lung.
For assay [9], the system named is COLO 205 colon.
The test system of assay [10] is NCI-H522 lung.

Molecules are shown by their SMILES.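 All cell lines were grown in 96-well plates and treated with compound for 48 hours. GI50 marks 50% less growth. TGI: concentration producing complete growth inhibition.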

Consider `Cc1[nH]c2ccccc2c1C1CC(=O)NC1=O` (stereo not drawn), for which the TGI in [1], in [2], in [3], in assay [4], in [5] and in assay [6] was more than 100 µM in each case. Moreover, the TGI in assay [7] and in [8] was more than 100 µM each time.
Regarding `CN(C)Cc1cccc(CN(C)C)[c]1[Sn]([Br])([c]1ccccc1)[c]1ccccc1`, the GI50 in assay [1] was 14.7 µM; in [2], 17.2 µM; in assay [3], 17 µM; in assay [4], 12.4 µM; in assay [6] it was 15.2 µM; in assay [7] it was 2.29 µM. For the same molecule, the GI50 in assay [8] was 13.4 µM; in assay [9], 4.37 µM. Also, the TGI in assay [1] stood at 29 µM; in assay [2], 46.9 µM; in assay [3] it was 60.1 µM; in assay [4], 26.2 µM; in assay [6], 30.3 µM; in assay [7] it was 6.86 µM. The TGI in assay [8] amounted to 65.9 µM; in assay [9], 17.9 µM.
Consider `CC(C)Cc1ccc(C(C)/C=C2\CCC(CN3CCCC3)C2=O)cc1` (stereo not drawn), for which the TGI in [1] came out at 3.73 µM; in assay [2], 9.92 µM; in assay [3], 35 µM; in assay [10], 3.13 µM; in assay [4], 18 µM; in assay [5], 31.8 µM. The TGI turned out to be 15.4 µM in [6], 5.53 µM in assay [7], 37.9 µM in [8] and 22.1 µM in [9].
Consider `CC(C)c1cccc(C(C)C)c1N=C(N)C#N`, for which the TGI in [1] is more than 61.3 µM; in assay [2] it was more than 100 µM; in [3] it was more than 61.1 µM; in assay [10] it was more than 100 µM; in [4] it was more than 100 µM; in assay [5], more than 100 µM. Besides, the TGI in assay [6] is 50 µM; in assay [7], more than 87.3 µM; in assay [8], more than 62.5 µM; in assay [9] it was more than 59.1 µM.
In the case of `C[C@@H](NC1CCC[C@@H]1O)c1ccccc1` (stereo partly drawn), the TGI in assay [1], in assay [2], in [3], in assay [4], in assay [5] and in assay [7] was more than 100 µM in each case. The TGI in assay [8] and in assay [9] was more than 100 µM each time.
`c1ccc2c(c1)nnn2CNc1ccc(N2CCOCC2)cc1`: the TGI in [1], in assay [2], in [3], in assay [10], in [4] and in [5] was more than 100 µM throughout. For the same molecule, the TGI in [6], in [7], in assay [8] and in assay [9] was more than 100 µM throughout.
For the molecule `CC(=O)Nc1ccc2oc(=O)c3ccccc3c2c1`, the TGI in assay [1], in assay [3], in assay [10], in assay [4], in assay [5] and in assay [6] was more than 100 µM in each case. Moreover, the TGI in [7], in assay [8] and in assay [9] was more than 100 µM throughout.
As to `CCOC(=O)/C(C#N)=C\C=C1/C=CNC2=NCCN21`, the TGI in assay [1], in [2], in assay [3], in assay [10], in assay [4] and in [5] was more than 100 µM in each case. Further, the TGI in assay [6], in assay [7], in assay [8] and in assay [9] was more than 100 µM each time.
Turning to `N#Cc1ccc(-c2nc3ccc(Cl)cc3[nH]2)cc1`, the TGI in assay [1], in [3], in [10], in assay [4], in assay [5] and in assay [6] was more than 100 µM throughout. Moreover, the TGI in assay [7] and in [9] was more than 100 µM throughout.
As to `C#Cc1cccc(Nc2ncnc3ccc(-c4cnc(Cl)c(NS(C)(=O)=O)c4)cc23)c1`, the GI50 in [1] was 0.343 µM; in assay [3] it was 0.725 µM; in [10] it was 0.332 µM; in assay [4], 0.825 µM; in assay [5] it was 0.296 µM; in assay [6], 0.302 µM. Moreover, the GI50 in assay [7] was 0.412 µM; in assay [8] it was 0.572 µM; in [9], 0.648 µM. Moreover, the TGI was 4.55 µM in [1]; 4.83 µM in assay [3]; 4.33 µM in assay [10]; more than 33.5 µM in assay [4]; 1.62 µM in assay [5]; 1.68 µM in [6]. Besides, the values for the TGI in [7], in assay [8] and in assay [9] were 2.66 µM, 11.7 µM and 2.12 µM, respectively.
With `C/C(=N\NS(=O)(=O)c1ccc(C)cc1)c1c(O)cc(C)oc1=O`, the TGI in assay [1], in assay [2], in [3], in assay [4], in assay [5] and in assay [6] was more than 100 µM each time. Also, the TGI in assay [8] was more than 100 µM.
`CC(C(=O)c1ccccc1)C1(O)C(=O)Nc2ccccc21` (stereo not drawn): the TGI in assay [1], in assay [2], in [3], in assay [10], in assay [5] and in assay [6] was more than 100 µM in each case. For the same molecule, the TGI in assay [7], in assay [8] and in assay [9] was more than 100 µM in each case.
For the molecule `Cc1ccc2c(N/N=C\c3ccco3)cc(C)nc2n1`, the GI50 is 2.25 µM in [1]; 4.37 µM in [3]; 2.92 µM in assay [10]; 5.7 µM in [4]; 3.05 µM in assay [5]; 2.01 µM in assay [6]. The GI50 is 2.48 µM in [7], 3.24 µM in assay [8] and 1.88 µM in assay [9]. The TGI was determined as 6.11 µM in assay [1]; 18.5 µM in [3]; 9.84 µM in assay [10]; 24 µM in [4]; 8.77 µM in assay [5]; 3.74 µM in [6]. The TGI in assay [7] is 7.06 µM; in assay [8], 11.8 µM; in [9], 3.75 µM.
`CCN(CC)CCOC(=O)/C(=C/c1ccc(OC)cc1)c1cc(OC)c(OC)c(OC)c1`: the TGI in assay [1] was 98.8 µM; in assay [2], more than 100 µM; in assay [3], more than 100 µM; in [10] it was 9.32 µM; in assay [4], 74.2 µM; in assay [6], 10.8 µM. Moreover, the TGI in assay [7] is 52.5 µM; in assay [8], 51.2 µM; in assay [9], 18.9 µM.
Take `C[C@]12CC(C#N)C(=O)C(O)=C1CC[C@@H]1C2CC[C@@]2(C)C1CC[C@@H]2O` (stereo partly drawn): the TGI in assay [1], in assay [2], in assay [3], in assay [4], in [5] and in assay [6] was more than 100 µM in each case. The TGI in [7], in [8] and in assay [9] was more than 100 µM each time.
For `CC(Oc1ccc(OCC2CCCCC2)cc1)C(=O)O` (stereo not drawn), the TGI in assay [1], in [2], in assay [3], in [10], in assay [4] and in [5] was more than 100 µM in each case. Further, the TGI in assay [6] and in assay [8] was more than 100 µM throughout.
For the molecule `Cc1ccc(C(=O)CCC2C(=O)CC(C)(C)CC2=O)cc1`, the TGI in assay [1] is more than 100 µM; in [2], more than 100 µM; in assay [3], more than 100 µM; in assay [10] it was 34.4 µM; in assay [4], more than 100 µM; in [5] it was more than 100 µM. Further, the TGI in [6], in [8] and in assay [9] was more than 100 µM in each case.
For `NCCCn1c2c(c3cc4c(cc3c1=O)OCO4)C(=O)c1ccccc1-2`, the GI50 in assay [1] is 1.49 µM; in [2], 1.98 µM; in assay [10] it was 1.92 µM; in assay [4] it was 0.142 µM; in assay [5], 2.91 µM; in assay [8], 2.06 µM. Moreover, the GI50 in assay [9] is 3.61 µM. In addition, the TGI in assay [1] is 2.88 µM; in assay [2], 5.75 µM; in assay [10], 4.39 µM; in [4] it was 1.14 µM; in assay [5], more than 70.3 µM; in assay [7], 0.208 µM. Further, the values for the TGI in assay [8] and in assay [9] were 4.11 µM and more than 100 µM, respectively.
Regarding `O=C1NC(=O)C(=O)C(c2nc3ccccc3s2)C1=O`, the TGI in assay [1], in assay [2], in assay [3], in assay [10], in assay [4] and in assay [5] was more than 100 µM each time. Moreover, the TGI in assay [6], in assay [8] and in assay [9] was more than 100 µM throughout.
As to `CCN(CC)C(=O)CNC(=O)OC(C)(C)C`, the TGI in assay [1], in assay [2], in [3], in assay [10], in [4] and in assay [5] was more than 100 µM in each case. Besides, the TGI in [6], in assay [7] and in assay [8] was more than 100 µM in each case.
Take `CC(=O)NC1C(OCc2ccccc2)OC(COC(=O)CCCCCNc2ccc([N+](=O)[O-])c3[nH]c4ccc(O)cc4c(=O)c23)C(O)C1OC(C)C(=O)N[C@@H](C)C(=O)N[C@H](CCC(=O)OCc1ccccc1)C(N)=O` (stereo partly drawn): the TGI in assay [1] is 14.3 µM; in assay [3], 6.92 µM; in assay [10], 3.61 µM; in assay [4], 10.8 µM; in assay [5], 3.98 µM; in assay [6], 15.4 µM. Also, the TGI was found to be 3.57 µM in [7], 4.33 µM in assay [8] and 3.25 µM in [9].
With `O=C1C(Cl)=C(Nc2cccc(O)c2)C(=O)N1c1cccc(Cl)c1`, the GI50 in assay [1] is 57.8 µM; in assay [2], more than 100 µM; in assay [3], 81.1 µM; in assay [10], 16.6 µM; in [4] it was 27.2 µM; in [5], 34.7 µM. Besides, the GI50 is 12.8 µM in assay [7], 48.5 µM in [8] and 56.5 µM in [9]. The TGI was more than 100 µM in assay [1]; more than 100 µM in assay [2]; more than 100 µM in assay [3]; 36.3 µM in [10]; more than 100 µM in assay [4]; more than 100 µM in assay [5]. Besides, the TGI in assay [7] is 34.3 µM; in [8], more than 100 µM; in assay [9], more than 100 µM.
`O=C(N/C(=C\c1ccc([N+](=O)[O-])cc1)c1nc2ccc(Cl)cc2[nH]1)c1ccccc1`: the TGI is 53 µM in assay [1]; 88.7 µM in assay [2]; 74.8 µM in [3]; 27.8 µM in assay [10]; more than 100 µM in assay [4]; 48.1 µM in assay [5]. The molecule further came in with a TGI in [6] of 40.7 µM.
In the case of `S=P(c1ccccc1)(c1ccccc1)C1(C2(P(=S)(c3ccccc3)c3ccccc3)CC2)CC1`, the TGI in [1], in assay [2], in [3], in assay [10], in assay [4] and in assay [5] was more than 100 µM throughout. The TGI in assay [6], in assay [8] and in assay [9] was more than 100 µM throughout.
Take `O=S1c2ccccc2N=C(c2ccc(Cl)cc2)CC1c1cccs1` (stereo not drawn): the TGI in assay [1] was 28.2 µM; in assay [2], more than 100 µM; in assay [3], more than 100 µM; in assay [10], 83.5 µM; in assay [4] it was 38.4 µM; in [6], 32.5 µM. Also, the TGI in [7] was 56.2 µM; in [8], more than 100 µM; in assay [9], 41 µM.
In the case of `COc1ccc(-c2csc(NC(=O)N3CCN(c4cc5c(cc4F)c(=O)c(C(=O)O)cn5C4CC4)CC3)n2)cc1`, the GI50 in [1] was 1.46 µM; in assay [2] it was 6.93 µM; in assay [3], 3.43 µM; in assay [5], 2.42 µM; in assay [6], 1.8 µM; in [8], 1.29 µM. Further, the TGI in assay [1] is 19.6 µM; in assay [2] it was 37 µM; in assay [3] it was more than 100 µM; in assay [5], 7.1 µM; in assay [6], more than 100 µM; in [8], more than 100 µM.
